Columns and labels:
Assay in all cases: relative viability (nuclei count vs DMSO), 5 days (fraction); higher = more cells survive
SGI-1776 + Navitoclax = compound: CN1CCC(CNc2ccc3ncc(-c4cccc(OC(F)(F)F)c4)n3n2)CC1 [SGI-1776] + CC1(C)CCC(c2ccc(Cl)cc2)=C(CN2CCN(c3ccc(C(=O)NS(=O)(=O)c4ccc(N[C@H](CCN5CCOCC5)CSc5ccccc5)c(S(=O)(=O)C(F)(F)F)c4)cc3)CC2)C1 [Navitoclax] (partner 0.5 µM)
Summary of the method: (§1)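 One day after seeding in 1536-well plates, lung cancer cell lines were dosed by pin tool. Dosing was either single-drug or a fixed anchor-drug dose plus five library-drug doses (not always all listed) in √10 steps. After 5 days, nuclei were stained in one fix-and-stain step and counted on 4× images, and relative viability is the nuclei count of treated wells over that of vehicle wells, given as the median of duplicate plates.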

[1] = compound: C1COCCN1C2=NC(=NC3=C2OC4=C3C=CC=N4)C5=CC(=CC=C5)NC(=O)C6=CN=C(C=C6)N + CCNC(=O)c1noc(-c2cc(C(C)C)c(O)cc2O)c1-c1ccc(CN2CCOCC2)cc1 [Luminespib] (partner 0.01 µM)
Summary of the method: as §1

[2] = compound: C1COCCN1C2=NC(=NC3=C2OC4=C3C=CC=N4)C5=CC(=CC=C5)NC(=O)C6=CN=C(C=C6)N + CS(=O)(=O)CCNCc1ccc(-c2ccc3ncnc(Nc4ccc(OCc5cccc(F)c5)c(Cl)c4)c3c2)o1 [Lapatinib] (partner 2 µM)
Summary of the method: as §1

Entinostat + OSI-027 = compound: Nc1ccccc1NC(=O)c1ccc(CNC(=O)OCc2cccnc2)cc1 [Entinostat] + COc1cccc2cc(-c3nc([C@H]4CC[C@H](C(=O)O)CC4)n4ncnc(N)c34)[nH]c12 [OSI-027] (partner 0.5 µM)
Summary of the method: as §1

Row | Cell Line | relative viability (SGI-1776 + Navitoclax; first compound 0.08 µM) | relative viability (SGI-1776 + Navitoclax; first compound 0.8 µM) | relative viability (SGI-1776 + Navitoclax; first compound 2.53 µM) | relative viability (SGI-1776 + Navitoclax; first compound 8 µM) | relative viability ([1]; first compound 0.02 µM) | relative viability ([1]; first compound 0.06325 µM) | relative viability ([1]; first compound 0.2 µM) | relative viability ([1]; first compound 0.6325 µM) | relative viability ([1]; first compound 2 µM) | relative viability ([2]; first compound 0.02 µM) | relative viability ([2]; first compound 0.06325 µM) | relative viability ([2]; first compound 0.2 µM) | relative viability ([2]; first compound 0.6325 µM) | relative viability ([2]; first compound 2 µM) | relative viability (Entinostat + OSI-027; first compound 0.02 µM) | relative viability (Entinostat + OSI-027; first compound 0.06325 µM) | relative viability (Entinostat + OSI-027; first compound 0.2 µM) | relative viability (Entinostat + OSI-027; first compound 0.6325 µM) | relative viability (Entinostat + OSI-027; first compound 2 µM)
1 | NCI-H2085 | 1.18 | 1.07 | 1.2 | 0.945 | 0.386 | 0.46 | 0.402 | 0.372 | 0.327 | 0.77 | 0.771 | 0.744 | 0.726 | 0.65 | 0.737 | 0.625 | 0.676 | 0.334 | 0.293
2 | NCI-H1792 | 0.614 | 0.72 | 0.654 | 0.479 | 0.286 | 0.487 | 0.405 | 0.286 | 0.331 | 0.882 | 0.904 | 0.874 | 0.925 | 0.376 | 0.752 | 0.753 | 0.609 | 0.569 | 0.43
3 | NCI-H2347 | 0.886 | 0.787 | 0.808 | 0.673 | 0.37 | 0.283 | 0.341 | 0.342 | 0.315 | 0.993 | 0.787 | 0.929 | 0.944 | 0.933 | 0.292 | 0.284 | 0.175 | 0.217 | 0.153
4 | 201T | 1.19 | 1.24 | 1.23 | 1.17 | 1.13 | 1 | 1.05 | 0.985 | 0.827 | 0.957 | 1.02 | 0.984 | 1.04 | 1.01 | 0.92 | 0.726 | 0.619 | 0.548 | 0.45
5 | NCI-H1755 | 1.02 | 0.976 | 0.934 | 0.856 | 0.447 | 0.666 | 0.436 | 0.235 | 0.239 | 1.09 | 1.12 | 1.05 | 1.02 | 0.653 | 0.693 | 0.776 | 0.684 | 0.566 | 0.309
6 | NCI-H596 | 0.982 | 1.05 | 0.995 | 0.939 | 0.985 | 1.04 | 0.968 | 0.992 | 0.408 | 0.997 | 1.04 | 1 | 0.997 | 0.765 | 0.716 | 0.804 | 0.708 | 0.443 | 0.412
7 | NCI-H1651 | 1.19 | 1.04 | 0.9 | 0.825 | 0.949 | 0.992 | 0.999 | 0.856 | 0.557 | 0.975 | 0.839 | 0.786 | 0.84 | 0.614 | 0.747 | 0.653 | 0.71 | 0.608 | 0.542
8 | NCI-H1437 | 1.13 | 1.07 | 1.11 | 1.04 | 0.859 | 1.21 | 1.04 | 1.08 | 0.537 | 0.801 | 0.952 | 0.746 | 0.794 | 0.327 | 0.786 | 0.581 | 0.306 | 0.218 | 0.203
